Assay results taken from patent publication US20220400679A1, “COMPOSITION FOR ENHANCING PLANT GROWTH” (CH Biotech R&D Co., Ltd., priority 2021, published 2022).

Legend:
[1] = system: Glyphosate-tolerant corn plants (D40SS48); assay: Example 3 content of plant hormones, corn; type: in vivo; details: with glyphosate treatment (4.87 g/L), 12 days after application, N = 3
Description: (§1) One seed was seeded in one pot.
(§2) 2.8 Content of Plant Hormones: Twelve (12) days after the application of reagents, 1 g of fresh sample leaf was ground in liquid nitrogen and then mixed with 10 g extraction solution (80% (v/v) methanol, 1% (v/v) acetic acid) by a vortex mixer. The sample was then sonicated for 1 hour and centrifuged at 2,500 rpm for 10 minutes. The supernatant was collected, concentrated, dissolved in 1 ml of 100% methanol, and then analyzed for content of plant hormones with a tandem quadrupole mass spectrometer (Waters® Xevo® TQ MS, Waters Corporation, Milford, Mass., USA) and ACQUITY UPLC System (Waters Corporation, Milford, Mass., USA).

[2] = system: Glyphosate-tolerant soybean plants (S29RY05); assay: Example 1 synergistic test with glyphosate: shoot dry weight, soybean; type: in vivo; details: 7 days after application, glyphosate 4.87 g/L vs Control group (p<0.01), FIG. 2A
Description: as §1
(§3) 2.1 Shoot dry weight: Seven (7) days after the application of reagents, leaves and stems of each plant were dried at 50° C. overnight, and then the dry weight was measured.
(§4) 2.2 Statistics: Unpaired Student's t-test was applied to assess numerical data statistical significance. Statistical significance was set at p-value less than 0.05.

[3] = system: Glyphosate-tolerant corn plants (D40SS48); assay: Example 3 analyses of leaves and roots (growth) after glyphosate treatment, corn; type: in vivo; details: 7 days after application, glyphosate 4.87 g/L, N = 10
Description: as §1
(§5) 2.1 Analyses of Leaves: Seven (7) days after the application of reagents, plant height was measured, and leaves were collected. The leaf area of the fourth leaf of each corn plant and the total leaf area of each soybean plant were measured by a leaf analyzer (WinFOLIA™ Regent Instruments Inc., Québec, Canada). Leaves and stems of each plant were dried at 50° C. overnight, and then the dry weight was measured.
(§6) 2.2 Analyses of Roots: Seven (7) days after the application of reagents, length of plant root was measured by a root analyzer (WinRHIZO™, Regent Instruments Inc., Québec, Canada). In addition, roots of each plant were dried at 50° C. overnight, and then the dry weight was measured.

[4] = system: Glyphosate-tolerant soybean plants (S29RY05); assay: Example 2 different concentrations of components with glyphosate: shoot dry weight, soybean; type: in vivo; details: glyphosate 4.87 g/L vs Control group (p<0.01), FIG. 4A
Description: as §3, §1
(§7) Methods for analyzing shoot dry weight and statistics are the same as described in Example 1.

[5] = system: nitrate reductase (NR) of soybean plants; assay: Example 3 activity of nitrate reductase, soybean; type: in vivo; details: 3 days after application, glyphosate vs Control group, FIG. 15
Description: as §1
(§8) One (1) ml of potassium phosphate buffer (100 mM, pH7.4) containing 7.5 mM cysteine, 1 mM EDTA, and 1.5% casein was added to the sample, mixed with the sample, and then the mixed sample was centrifuged at 4° C., 13,000 relative centrifugal field (rcf) for 30 minutes. […] The sample was centrifuged at room temperature, 3,000 rcf. The supernatant was transferred to a new tube and mixed with 0.5 mL sulphanilamide (5.8 mM) and 0.5 mL N-(1-naphthyl)ethylenediamine (0.8 mM). The mixture was incubated for 30 minutes. […] KNO2 is used as a NO2^− concentration standard.

[6] = system: Glyphosate-tolerant corn plants (D40SS48); assay: Example 3 electrolyte leakage, corn; type: in vivo; details: 3 days after application, glyphosate vs Control group, FIG. 6
Description: as §1
(§9) Six (6) leaf disks (7.5 mm diameter) were cut from the sample leaves and immersed in 10 ml of deionized water at 25° C. for 24 hours. After that, the first electrolytic conductivity (EC1) of the sample solution was analyzed with an electrical conductivity meter (SevenCompact™ 5230 Conductivity Meter, Mettler-Toledo, Columbus, Ohio, USA). The sample leaf disks were then kept in the deionized water at 95° C. for 2 hours. After the temperature of the sample solution decreased to 25° C., the second electrolytic conductivity (EC2) of the sample solution was analyzed with the electrical conductivity meter again. Ten (10) milliliters of deionized water without any sample were used as control. Electrolyte leakage of the sample leaves was analyzed with the following equation.
(§10) Electrolyte leakage (%)=(Sample EC1−Control EC1)×100/(Sample EC2−Control EC2)

[7] = system: glutamine synthetase (GS) of soybean plants; assay: Example 3 activity of glutamine synthetase, soybean; type: in vivo; details: 3 days after application, glyphosate vs Control group, FIG. 16
Description: as §1
(§11) The leaf powder and 1 ml of extraction solution, containing 10 mM Tris-HCl (pH7.6), 1 mM MgCl2, 1 mM EDTA, and 10 mM 2-Mercaptoethanol, were centrifuged at 4° C., 13,000 rcf for 30 minutes. […] The sample was centrifuged at room temperature, 3,000 rcf. Absorbance at an O.D. of 540 nm (A540) of the supernatant was measured.

[8] = system: Glyphosate-tolerant corn plants (D40SS48); assay: Example 1 synergistic test with glyphosate: shoot dry weight, corn; type: in vivo; details: 7 days after application, glyphosate 4.87 g/L vs Control group (p<0.01), FIG. 1A
Description: as §1, §3, §4

[9] = system: Glyphosate-tolerant soybean plants (S29RY05); assay: Example 3 electrolyte leakage, soybean; type: in vivo; details: 3 days after application, glyphosate vs Control group, FIG. 13
Description: as §1, §9, §10

[10] = system: Glyphosate-tolerant corn plants (D40SS48); assay: Example 3 content of TBARS, corn; details: 3 days after application, glyphosate vs Control group, FIG. 7
[11] = system: Glyphosate-tolerant soybean plants (S29RY05); assay: Example 3 content of TBARS, soybean; details: 3 days after application, glyphosate vs Control group, FIG. 14
[12] = system: Glyphosate-tolerant soybean plants (S29RY05); assay: Example 3 analyses of leaves and roots (growth) after glyphosate treatment, soybean; type: in vivo; details: 7 days after application, glyphosate 4.87 g/L
Description: as §1, §5, §6

[13] = system: Glyphosate-tolerant corn plants (D40SS48); assay: Example 2 different concentrations of components with glyphosate: shoot dry weight, corn; type: in vivo; details: glyphosate 4.87 g/L vs Control group (p<0.01), FIG. 3A
Description: as §3, §1, §7

[14] = system: nitrate reductase (NR) of corn plants; assay: Example 3 activity of nitrate reductase, corn; type: in vivo; details: 3 days after application, glyphosate vs Control group, FIG. 8
Description: as §1, §8

[15] = system: glutamine synthetase (GS) of corn plants; assay: Example 3 activity of glutamine synthetase, corn; type: in vivo; details: 3 days after application, glyphosate vs Control group, FIG. 9
Description: as §1, §11

[16] = system: glutamate synthase (GOGAT) of soybean plants; assay: Example 3 activity of glutamate synthase, soybean; type: in vivo; details: 3 days after application, glyphosate vs Control group, FIG. 17
Description: as §1
(§12) The leaf powder and 1 ml of extraction solution, containing 10 mM Tris-HCl (pH7.6), 1 mM MgCl2, 1 mM EDTA, and 10 mM 2-Mercaptoethanol, were centrifuged at 4° C., 13,000 rcf for 30 minutes. Zero-point-one-five (0.15) ml of the supernatant was mixed with the reaction solution containing 0.2 mL of 20 mM L-glutamine, 0.25 mL of 2 mM 2-oxoglutarate, 0.05 mL of 10 mM KCl, 1 mL of 25 mM Tris-HCl (pH7.6), and 0.1 mL 3 mM NADH to initiate the reaction. The GOGAT activity is determined by NADH reduction through measuring fluorescence intensity at excitation/emission wavelengths of 340/445 nm. NADH concentration is determined by reference to a NADH standard curve.

[17] = system: Glyphosate-tolerant soybean plants (S29RY05); assay: Example 3 content of plant hormones, soybean; type: in vivo; details: with glyphosate treatment (4.87 g/L), 12 days after application, N = 3
Description: as §1, §2

[18] = system: glutamate synthase (GOGAT) of corn plants; assay: Example 3 activity of glutamate synthase, corn; type: in vivo; details: 3 days after application, glyphosate vs Control group, FIG. 10
Description: as §1, §12

Q: Which results are given for O=C(O)CNCP(=O)(O)O [Glyphosate only, glyphosate]?
A: Phytohormone content: ABA [1]: 2742 ng/g FW; Phytohormone content: Cytokinin (Zeatin+iPAs) [1]: 0.75 ng/g FW; Phytohormone content: GA1 [1]: 625 ng/g FW; Phytohormone content: IAA [1]: 45 ng/g FW; shoot dry weight [2]: significant decrease in shoot dry weight; Plant height [3]: 42.70 cm; Root dry weight [3]: 0.35 g; The 4th leaf area [3]: 89.45 cm^2; Total root length [3]: 1405.69 cm; shoot dry weight [3]: 1.30 g; shoot dry weight [4]: significant decrease in shoot dry weight; activities of nitrate reductase (NR) [5]: decrease in activities; electrolyte leakage [6]: increase in electrolyte leakage; activities of glutamine synthetase (GS) [7]: decrease in activities; shoot dry weight [8]: significant decrease in shoot dry weight; electrolyte leakage [9]: increase in electrolyte leakage; TBARS level [10]: increase in TBARS level; TBARS level [11]: increase in TBARS level; leaf curling symptoms (phenotype observation of soybean leaves) ([12]; FIG. 12): causes leaf curling symptoms; necrotic areas (phenotype observation of soybean leaves) ([12]; FIG. 12): necrotic areas; Root dry weight ([12]; N = 10): 0.28 g; Shoot fresh weight ([12]; N = 10): 2.46 g; The unifoliate leaf length ([12]; N = 10): 4.54 cm; Total leaf area ([12]; N = 10): 55.96 cm^2; Total root length ([12]; N = 10): 2047.40 cm; shoot dry weight [13]: significant decrease in shoot dry weight; activities of nitrate reductase (NR) [14]: decrease in activities; activities of glutamine synthetase (GS) [15]: decrease in activities; activities of glutamate synthase (GOGAT) [16]: decrease in activities; Phytohormone content: ABA [17]: 1189 ng/g FW; Phytohormone content: Cytokinin (Zeatin+iPAs) [17]: 0.68 ng/g FW; Phytohormone content: GA1 [17]: 832 ng/g FW; Phytohormone content: IAA [17]: 28 ng/g FW; activities of glutamate synthase (GOGAT) [18]: decrease in activities
